The supplement of paper PMC10307832

Key:
Assay in all cases: relative viability (nuclei count vs DMSO), 5 days (fraction); higher = more cells survive
[1] = system: EBC-1
Method in brief: (§1)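 Medians of duplicate plates are given as relative viability. That measure is the nuclei count in treated wells divided by the count in vehicle wells. Counts were taken on 4× images of lung cancer cell lines in 1536-well plates, 5 days after pin-tool dosing the day after seeding with one drug alone or a fixed anchor-drug dose plus five library-drug doses (not always all listed) in √10 steps.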

[2] = system: NCI-H1703
Method in brief: as §1

[3] = system: NCI-H1563
Method in brief: as §1

[4] = system: IA-LM
Method in brief: as §1

[5] = system: Calu-6
Method in brief: as §1

[6] = system: NCI-H1299
Method in brief: as §1

[7] = system: A549
Method in brief: as §1

`O=c1[nH]c2ccccc2n1C1CCN(CCCC(c2ccc(F)cc2)c2ccc(F)cc2)CC1` [Pimozide] + CC(C)C[C@H](NC(=O)[C@H](Cc1ccccc1)NC(=O)c1cnccn1)B(O)O [Bortezomib] (partner 0.002 µM) gave a relative viability ([1]; first compound 0.08 µM) of 0.517, a relative viability ([1]; first compound 0.253 µM) of 0.557 and a relative viability ([1]; first compound 0.8 µM) of 0.532. The relative viability ([1]; first compound 2.53 µM) was 0.439, the relative viability ([1]; first compound 8 µM) was 0.381 and the relative viability ([2]; first compound 0.08 µM) was 0.206. It also gave a relative viability ([2]; first compound 0.253 µM) of 0.337, a relative viability ([2]; first compound 0.8 µM) of 0.379 and a relative viability ([2]; first compound 2.53 µM) of 0.227. It also gave a relative viability ([2]; first compound 8 µM) of 0.306, a relative viability ([3]; first compound 0.08 µM) of 0.848 and a relative viability ([3]; first compound 0.253 µM) of 0.936. For the same compound, the relative viability ([3]; first compound 0.8 µM) was 0.855, the relative viability ([3]; first compound 2.53 µM) was 0.67 and the relative viability ([3]; first compound 8 µM) was 0.583. For the same compound, the relative viability ([4]; first compound 0.08 µM) was 0.789, the relative viability ([4]; first compound 0.253 µM) was 0.792 and the relative viability ([4]; first compound 0.8 µM) was 0.856. The relative viability ([4]; first compound 2.53 µM) was 0.901, the relative viability ([4]; first compound 8 µM) was 0.692 and the relative viability ([5]; first compound 0.08 µM) was 1. It also gave a relative viability ([5]; first compound 0.253 µM) of 1.15, a relative viability ([5]; first compound 0.8 µM) of 0.969 and a relative viability ([5]; first compound 2.53 µM) of 1.04. For the same compound, the relative viability ([5]; first compound 8 µM) was 0.856, the relative viability ([6]; first compound 0.08 µM) was 0.984 and the relative viability ([6]; first compound 0.253 µM) was 1.05. The relative viability ([6]; first compound 0.8 µM) was 0.975, the relative viability ([6]; first compound 2.53 µM) was 1.01 and the relative viability ([6]; first compound 8 µM) was 0.976.
`O=C(O)CCCCC(CCSCc1ccccc1)SCc1ccccc1` (stereo unspecified) [CPI-613] + C[C@]1(O)C[C@@H](c2nc(-c3ccc4ccc(-c5ccccc5)nc4c3)c3c(N)nccn32)C1 [Linsitinib] (partner 1 µM) gave a relative viability ([1]; first compound 5 µM) of 0.874, a relative viability ([1]; first compound 15.81 µM) of 0.695 and a relative viability ([1]; first compound 50 µM) of 0.593. The relative viability ([1]; first compound 158.11 µM) was 0.786, the relative viability ([1]; first compound 500 µM) was 0.608 and the relative viability ([2]; first compound 5 µM) was 1.21. For the same compound, the relative viability ([2]; first compound 15.81 µM) was 0.809, the relative viability ([2]; first compound 50 µM) was 0.568 and the relative viability ([2]; first compound 158.11 µM) was 0.17. It also gave a relative viability ([2]; first compound 500 µM) of 0.439, a relative viability ([3]; first compound 5 µM) of 1.26 and a relative viability ([3]; first compound 15.81 µM) of 1.21. For the same compound, the relative viability ([3]; first compound 50 µM) was 1.23, the relative viability ([3]; first compound 158.11 µM) was 0.454 and the relative viability ([3]; first compound 500 µM) was 0.208. For the same compound, the relative viability ([4]; first compound 5 µM) was 0.703, the relative viability ([4]; first compound 15.81 µM) was 0.364 and the relative viability ([4]; first compound 50 µM) was 0.432. It also gave a relative viability ([4]; first compound 158.11 µM) of 0.527, a relative viability ([4]; first compound 500 µM) of 0.358 and a relative viability ([5]; first compound 5 µM) of 1.02. The relative viability ([5]; first compound 50 µM) was 0.726, the relative viability ([5]; first compound 158.11 µM) was 0.905 and the relative viability ([5]; first compound 500 µM) was 0.658. For the same compound, the relative viability ([6]; first compound 5 µM) was 0.933, the relative viability ([6]; first compound 15.81 µM) was 0.894 and the relative viability ([6]; first compound 50 µM) was 0.869. It also gave a relative viability ([6]; first compound 158.11 µM) of 1, a relative viability ([6]; first compound 500 µM) of 0.957 and a relative viability ([7]; first compound 5 µM) of 0.529. The relative viability ([7]; first compound 15.81 µM) was 0.521, the relative viability ([7]; first compound 50 µM) was 0.588 and the relative viability ([7]; first compound 158.11 µM) was 0.722. For the same compound, the relative viability ([7]; first compound 500 µM) was 0.597.
`O=C(O)CCCCC(CCSCc1ccccc1)SCc1ccccc1` (stereo unspecified) [CPI-613] + CC1(C)CCC(c2ccc(Cl)cc2)=C(CN2CCN(c3ccc(C(=O)NS(=O)(=O)c4ccc(N[C@H](CCN5CCOCC5)CSc5ccccc5)c(S(=O)(=O)C(F)(F)F)c4)cc3)CC2)C1 [Navitoclax] (partner 0.5 µM) showed a relative viability ([1]; first compound 5 µM) of 0.373, a relative viability ([1]; first compound 15.81 µM) of 0.404 and a relative viability ([1]; first compound 50 µM) of 0.397. For the same compound, the relative viability ([1]; first compound 158.11 µM) was 0.0793, the relative viability ([1]; first compound 500 µM) was 0.0379 and the relative viability ([2]; first compound 5 µM) was 1.01. For the same compound, the relative viability ([2]; first compound 15.81 µM) was 0.967, the relative viability ([2]; first compound 50 µM) was 0.829 and the relative viability ([2]; first compound 158.11 µM) was 0.144. The relative viability ([2]; first compound 500 µM) was 0.0899, the relative viability ([4]; first compound 5 µM) was 0.692 and the relative viability ([4]; first compound 15.81 µM) was 0.707. It also gave a relative viability ([4]; first compound 50 µM) of 0.685, a relative viability ([4]; first compound 158.11 µM) of 0.0974 and a relative viability ([4]; first compound 500 µM) of 0.0132. The relative viability ([5]; first compound 5 µM) was 0.72, the relative viability ([5]; first compound 15.81 µM) was 0.744 and the relative viability ([5]; first compound 50 µM) was 0.595. It also gave a relative viability ([5]; first compound 158.11 µM) of 0.107, a relative viability ([5]; first compound 500 µM) of 0.0529 and a relative viability ([6]; first compound 5 µM) of 1.05. The relative viability ([6]; first compound 15.81 µM) was 1.05, the relative viability ([6]; first compound 50 µM) was 1.06 and the relative viability ([6]; first compound 158.11 µM) was 1.01. It also gave a relative viability ([6]; first compound 500 µM) of 1.04, a relative viability ([7]; first compound 5 µM) of 1.11 and a relative viability ([7]; first compound 15.81 µM) of 0.977. The relative viability ([7]; first compound 50 µM) was 1.09, the relative viability ([7]; first compound 158.11 µM) was 0.308 and the relative viability ([7]; first compound 500 µM) was 0.0559.
`O=C(O)CCCCC(CCSCc1ccccc1)SCc1ccccc1` (stereo unspecified) [CPI-613] + CS(=O)(=O)N1CCN(Cc2cc3nc(-c4cccc5[nH]ncc45)nc(N4CCOCC4)c3s2)CC1 [Pictilisib] (partner 1 µM) showed a relative viability ([1]; first compound 5 µM) of 0.391, a relative viability ([1]; first compound 15.81 µM) of 0.37 and a relative viability ([1]; first compound 50 µM) of 0.362. It also gave a relative viability ([1]; first compound 158.11 µM) of 0.206, a relative viability ([1]; first compound 500 µM) of 0.0773 and a relative viability ([2]; first compound 5 µM) of 0.25. For the same compound, the relative viability ([2]; first compound 15.81 µM) was 0.264, the relative viability ([2]; first compound 50 µM) was 0.27 and the relative viability ([2]; first compound 158.11 µM) was 0.213. It also gave a relative viability ([2]; first compound 500 µM) of 0.115, a relative viability ([3]; first compound 5 µM) of 0.657 and a relative viability ([3]; first compound 15.81 µM) of 0.597. It also gave a relative viability ([3]; first compound 50 µM) of 0.623, a relative viability ([3]; first compound 158.11 µM) of 0.513 and a relative viability ([3]; first compound 500 µM) of 0.193. The relative viability ([4]; first compound 5 µM) was 0.294, the relative viability ([4]; first compound 15.81 µM) was 0.307 and the relative viability ([4]; first compound 50 µM) was 0.238. The relative viability ([4]; first compound 158.11 µM) was 0.0746, the relative viability ([4]; first compound 500 µM) was 0.0098 and the relative viability ([5]; first compound 5 µM) was 0.938. The relative viability ([5]; first compound 15.81 µM) was 0.811, the relative viability ([5]; first compound 50 µM) was 0.754 and the relative viability ([5]; first compound 158.11 µM) was 0.446. For the same compound, the relative viability ([5]; first compound 500 µM) was 0.111, the relative viability ([6]; first compound 5 µM) was 0.789 and the relative viability ([6]; first compound 15.81 µM) was 0.756. The relative viability ([6]; first compound 50 µM) was 0.785, the relative viability ([6]; first compound 158.11 µM) was 0.404 and the relative viability ([6]; first compound 500 µM) was 0.106. It also gave a relative viability ([7]; first compound 5 µM) of 0.491, a relative viability ([7]; first compound 15.81 µM) of 0.414 and a relative viability ([7]; first compound 50 µM) of 0.39. For the same compound, the relative viability ([7]; first compound 158.11 µM) was 0.127 and the relative viability ([7]; first compound 500 µM) was 0.0559.
With `Cc1cnc(-c2cnc(NCCNc3ccc(C#N)cn3)nc2-c2ccc(Cl)cc2Cl)[nH]1` + CS(=O)(=O)N1CCN(Cc2cc3nc(-c4cccc5[nH]ncc45)nc(N4CCOCC4)c3s2)CC1 [Pictilisib] (partner 1 µM) the relative viability ([1]; first compound 0.08 µM) was 0.421, the relative viability ([1]; first compound 0.253 µM) was 0.368 and the relative viability ([1]; first compound 0.8 µM) was 0.549. It also gave a relative viability ([1]; first compound 2.53 µM) of 0.567, a relative viability ([2]; first compound 0.08 µM) of 0.256 and a relative viability ([2]; first compound 0.253 µM) of 0.252. For the same compound, the relative viability ([2]; first compound 0.8 µM) was 0.23, the relative viability ([2]; first compound 2.53 µM) was 0.314 and the relative viability ([3]; first compound 0.08 µM) was 0.649. For the same compound, the relative viability ([3]; first compound 0.253 µM) was 0.72, the relative viability ([3]; first compound 0.8 µM) was 0.709 and the relative viability ([3]; first compound 2.53 µM) was 0.725. The relative viability ([4]; first compound 0.08 µM) was 0.362, the relative viability ([4]; first compound 0.253 µM) was 0.408 and the relative viability ([4]; first compound 2.53 µM) was 0.483. It also gave a relative viability ([5]; first compound 0.08 µM) of 0.923, a relative viability ([5]; first compound 0.253 µM) of 0.934 and a relative viability ([5]; first compound 0.8 µM) of 1.05. It also gave a relative viability ([5]; first compound 2.53 µM) of 0.911, a relative viability ([6]; first compound 0.08 µM) of 0.822 and a relative viability ([6]; first compound 0.253 µM) of 0.754. The relative viability ([6]; first compound 0.8 µM) was 0.861, the relative viability ([6]; first compound 2.53 µM) was 0.426 and the relative viability ([7]; first compound 0.08 µM) was 0.597. The relative viability ([7]; first compound 0.253 µM) was 0.482, the relative viability ([7]; first compound 0.8 µM) was 0.764 and the relative viability ([7]; first compound 2.53 µM) was 0.775.
